Data reported in article PMC8795738, “The Tarantula Venom Peptide Eo1a Binds to the Domain II S3-S4 Extracellular Loop of Voltage-Gated Sodium Channel NaV1.8 to Enhance Activation” (Frontiers in Pharmacology, 2022).
Where a SMILES comes first, the peptide text is derived from it. Bridges are numbered along the chain shown (N, C = ends).

Columns and labels:
KV2.1 = molecular target: T1, KV2.1 (Homo sapiens, UniProt Q14721); test: KV2.1 currents, whole-cell patch-clamp; format: cell-based; conditions: Eo1a 10 μM, 5 min, HEK293, human KV2.1, n = 3
T1 construct: expressed in transfected cells; host or cells: HEK293 cells stably expressing β1/β2, transient transfection with Lipofectamine 2000
T1 sequence (Q14721 1-858): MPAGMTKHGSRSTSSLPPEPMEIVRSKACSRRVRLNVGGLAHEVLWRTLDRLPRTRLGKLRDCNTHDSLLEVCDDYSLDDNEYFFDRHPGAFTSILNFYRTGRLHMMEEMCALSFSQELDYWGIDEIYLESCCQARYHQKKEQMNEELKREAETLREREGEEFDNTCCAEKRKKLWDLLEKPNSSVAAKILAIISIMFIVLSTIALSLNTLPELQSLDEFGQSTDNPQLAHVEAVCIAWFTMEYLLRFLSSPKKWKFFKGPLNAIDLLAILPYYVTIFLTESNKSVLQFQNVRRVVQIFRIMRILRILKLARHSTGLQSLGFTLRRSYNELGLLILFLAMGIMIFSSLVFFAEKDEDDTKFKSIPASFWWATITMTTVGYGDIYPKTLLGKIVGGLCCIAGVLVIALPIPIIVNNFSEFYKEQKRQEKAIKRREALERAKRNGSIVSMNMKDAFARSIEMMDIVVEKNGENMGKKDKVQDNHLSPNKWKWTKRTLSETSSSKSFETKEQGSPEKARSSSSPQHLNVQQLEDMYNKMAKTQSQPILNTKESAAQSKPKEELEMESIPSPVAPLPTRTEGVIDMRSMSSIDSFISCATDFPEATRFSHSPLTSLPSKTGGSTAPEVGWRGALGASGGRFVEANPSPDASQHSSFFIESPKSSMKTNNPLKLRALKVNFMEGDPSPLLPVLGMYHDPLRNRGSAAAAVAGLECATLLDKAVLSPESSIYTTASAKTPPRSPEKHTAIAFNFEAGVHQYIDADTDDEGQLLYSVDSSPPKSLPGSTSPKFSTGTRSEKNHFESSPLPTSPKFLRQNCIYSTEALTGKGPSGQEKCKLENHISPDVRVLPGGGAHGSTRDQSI
Experimental: Human Embryonic Kidney (HEK) 293 cells stably expressing human NaV1.1 to NaV1.7/β1 (SB Drug Discovery, Glasgow, United Kingdom), Chinese Hamster Ovary (CHO) cells stably expressing human NaV1.8/β3 in a tetracycline-inducible system (ChanTest, Cleveland, OH, United States), and HEK293 cells stably expressing rat transient receptor potential vanilloid 1 (TRPV1) were cultured as previously described ([Yin et al., 2020]). Human KV2.1 and NaV1.7 mutants were transiently transfected into HEK293 cells stably expressing β1/β2 using Lipofectamine 2000 (Thermo Fisher Scientific, Scoresby, VIC, Australia) and used for patch-clamp experiments 48 h after transfection. Cells were grown in an incubator at 37°C with 5% CO2 and passaged every 3–4 d (at 70–80% confluency) using TrypLE Express (Thermo Fisher Scientific).
Automated whole-cell patch-clamp recordings were performed with a QPatch-16 automated electrophysiology platform (Sophion Bioscience, Ballerup, Denmark) using single-hole (QPlate 16 with a standard resistance of 2 ± 0.4 MΩ) or multi-hole (QPlate 16X with a standard resistance 0.2 ± 0.04 MΩ, NaV1.8 only) as previously described ([McMahon et al., 2020]).
The extracellular solution (ECS) consisted of (in mM) 145 NaCl (replaced with 70 choline chloride for NaV1.4, NaV1.5 and NaV1.7), 4 KCl, 2 CaCl2, 1 MgCl2, 10 HEPES, and 10 glucose, pH to 7.4 with NaOH (adjusted to 305 mOsm/L with sucrose). For NaV recordings the intracellular solution (ICS) consisted of (in mM) 140 CsF, 1 EGTA, 5 CsOH, 10 HEPES, and 10 NaCl, pH to 7.3 with CsOH (adjusted to 320 mOsm/L with sucrose). For KV2.1 recordings the ICS consisted of (in mM) 50 KCl, 60 KF, 10 EGTA, 10 HEPES, 10 NaCl pH to 7.3 with KOH (adjusted to 320 mOsm/L with sucrose). TTX (1 μM) was added to the ECS for NaV1.8 recordings to inhibit background endogenous TTX sensitive current in CHO cells.
KV2.1 currents were acquired using a holding potential of −80 mV and a 300 ms pulse to +50 mV every 20 s (0.05 Hz). Eo1a was incubated for 5 min and compared to buffer control.

WT mice = test: Spontaneous pain after intraplantar injection, WT littermate mice; format: in vivo, mouse; conditions: Eo1a intraplantar, mean ± SEM, n = 3–4 mice
Excerpt: Adult male C57BL/6J mice aged 4–8 weeks were sourced from the Animal Resource Centre (Canning Vale, Western Australia). Adult male NaV1.8 knockouts ([Nassar et al., 2004]) (aged 8–11 weeks) and wild-type littermates were housed and tested at University College London. Animals were housed in groups of three or four per cage under 12-h light-dark cycles and were provided with standard rodent chow and water ad libitum. Ethical approval for experiments involving animals was obtained from The University of Queensland animal ethics committee (TRI/IMB/093/17, IMB/PACE/421/18) and the United Kingdom Home Office (project licence PPL 70/7382). All experiments were conducted in accordance with the International Association for the Study of Pain Guidelines for the Use of Animals in Research and the Australian Code of Practice for the Care and Use of Animals for Scientific Purposes, 8th edition (2013).
Eo1a (1 μM or 10 μM) was diluted in saline/0.1% BSA and administered by intraplantar injection to the left hind paw of mice in a volume of 40 μl under isoflurane (3%) anaesthesia, and spontaneous pain behaviours (licks, bites, shakes, and lifts of the hind paw) were counted by a blinded investigator for up to 40 min after the injection.

With CC[C@H](C)[C@@H]1NC(=O)[C@H](CCCNC(=N)N)NC(=O)[C@@H]2CSSC[C@@H]3NC(=O)CNC(=O)CNC(=O)[C@H](CC(C)C)NC(=O)[C@H](Cc4ccccc4)NC(=O)[C@H](Cc4c[nH]c5ccccc45)NC(=O)[C@H](CCCNC(=N)N)NC(=O)[C@@H](NC(=O)[C@@H](N)CC(=O)O)CSSC[C@H](NC(=O)[C@H](CSSC[C@@H](C(=O)N[C@@H](C)C(=O)N[C@@H](Cc4c[nH]c5ccccc45)C(=O)N[C@@H](CC(=O)O)C(=O)NCC(=O)N[C@H](C(=O)N[C@@H](Cc4ccccc4)C(N)=O)[C@@H](C)O)NC(=O)[C@H](Cc4ccc(O)cc4)NC(=O)[C@H](CCCCN)NC(=O)[C@H]([C@@H](C)CC)NC(=O)[C@H](Cc4ccc(O)cc4)NC(=O)CNC(=O)[C@H](CC(=O)O)NC1=O)NC(=O)[C@H](CC(=O)O)NC(=O)[C@H](CO)NC(=O)[C@H](CC(=O)O)NC(=O)[C@H](CCCCN)NC(=O)[C@H](CO)NC3=O)C(=O)N[C@@H](CCCCN)C(=O)N[C@@H](Cc1c[nH]cn1)C(=O)N[C@@H](CC(C)C)C(=O)N[C@@H](C)C(=O)N2 [Eo1a] (H-DCRWFLGGCSKDSDCCKHLACRIDGYIKYCAWDGTF-NH2; disulfide 2-16, 9-21, 15-30 (inferred); N-terminus assumed) the “τactivation of KV2.1” value (KV2.1; 300 ms pulse to +50 mV, buffer 5.1 ± 0.4 ms) was 13.6 ± 2.7 ms, the “late current size of KV2.1, I250 ms” value (KV2.1; holding −80 mV, 300 ms pulse to +50 mV, buffer 6.25 ± 0.9 nA) was 6.34 ± 0.9 nA and the “KV2.1 late current, inhibitory activity” value (KV2.1) was “no inhibitory activity”. For the same compound, the “spontaneous pain (flinches)” value (WT mice) was 392 ± 45 Flinches/15 min.
